Assay results reported in publication PMC6271730, “Bioactive Secondary Metabolites from Phomopsis sp., an Endophytic Fungus from Senna spectabilis” (Molecules, 2014).
Read-outs that look alike come from different tables or passages of the source.

Target: T1, Myeloperoxidase (MPO, EC 1.11.1.7) (Homo sapiens, UniProt P05164)
T1 construct: commercial purified enzyme (Planta Natural Products, Vienna); mature heavy and light chains come from one precursor
Assay: MPO chlorination activity, taurine chloramine / TMB oxidation at […] nm
Type: biochemical

T1 sequence (P05164 165-273): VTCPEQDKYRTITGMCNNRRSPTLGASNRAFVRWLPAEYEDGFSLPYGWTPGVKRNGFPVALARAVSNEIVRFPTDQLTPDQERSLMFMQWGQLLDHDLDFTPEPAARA
T1 sequence (P05164 279-745): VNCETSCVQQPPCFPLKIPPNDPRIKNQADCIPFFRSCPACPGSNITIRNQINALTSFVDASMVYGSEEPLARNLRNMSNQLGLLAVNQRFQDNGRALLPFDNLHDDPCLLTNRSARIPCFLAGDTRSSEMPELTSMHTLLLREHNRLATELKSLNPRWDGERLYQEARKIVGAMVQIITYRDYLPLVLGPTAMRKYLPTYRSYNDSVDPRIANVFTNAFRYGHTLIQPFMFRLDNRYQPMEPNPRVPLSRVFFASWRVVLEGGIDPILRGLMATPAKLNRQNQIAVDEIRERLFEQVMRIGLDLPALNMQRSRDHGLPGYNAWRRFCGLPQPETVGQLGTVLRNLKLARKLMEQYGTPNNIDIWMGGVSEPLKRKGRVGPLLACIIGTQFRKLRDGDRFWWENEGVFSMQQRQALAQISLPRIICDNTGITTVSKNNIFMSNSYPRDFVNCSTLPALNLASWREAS

SMILES | IC50 [µM] | IC50 (read-out: IC50) [µM]
Cc1cc(O)cc2oc(=O)c3c(O)cc(O)cc3c12 [compound 5, alternariol] | > 50 | –
COc1cc(O)c2c(=O)oc3cc(O)cc(C)c3c2c1 [compound 4, alternariol monomethyl ether] | – | > 50
